The NIST ThermoML archive (doi:10.1016/j.tca.2017.05.009)
Numbers after ± are expanded uncertainties.

Conditions: Crystal; DTA

## [Sn] [tin]
  Normal melting temperature: 231.90 ± 2 °C
